Measurements from ChEMBL document CHEMBL1201862, “PubChem BioAssay data set” (2004).
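Method: 48-hour compound exposure of cells in 96-well plates, five concentrations, linear interpolation of endpoints. The concentration for 50% growth inhibition is given as GI50.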 Activity calls are given as the source filed them. Cut-off read from the data, not from the text of the source: active = GI50 up to about 1.1 µM and inactive = higher.

Tests used:
Experiment in all cases: NCI tumour cell line growth inhibition, 48 h
TK-10 = tested on: TK-10
SK-MEL-28 = tested on: SK-MEL-28
CAKI-1 = tested on: CAKI-1
MOLT-4 = tested on: MOLT-4
A549 = tested on: A549
SF-268 = tested on: SF-268
MDA-MB-231 = tested on: MDA-MB-231
UO-31 = tested on: UO-31
K562 = tested on: K562
SF-539 = tested on: SF-539
COLO 205 = tested on: COLO 205
SF-295 = tested on: SF-295
SK-OV-3 = tested on: SK-OV-3
OVCAR-3 = tested on: OVCAR-3
MDA-MB-435 = tested on: MDA-MB-435
CCRF-CEM = tested on: CCRF-CEM
NCI-H23 = tested on: NCI-H23
RPMI-8226 = tested on: RPMI-8226
RXF 393 = tested on: RXF 393
SW-620 = tested on: SW-620
NCI-H522 = tested on: NCI-H522
SNB-19 = tested on: SNB-19
HCC 2998 = tested on: HCC 2998
786-0 = tested on: 786-0
UACC-257 = tested on: UACC-257
HT-29 = tested on: HT-29
LOX IMVI = tested on: LOX IMVI
OVCAR-5 = tested on: OVCAR-5
NCI-H460 = tested on: NCI-H460
KM12 = tested on: KM12
DU-145 = tested on: DU-145
SN12C = tested on: SN12C
A498 = tested on: A498
HOP-62 = tested on: HOP-62
NCI-H226 = tested on: NCI-H226
Hs-578T = tested on: Hs-578T
U-251 = tested on: U-251
SK-MEL-2 = tested on: SK-MEL-2
Malme-3M = tested on: Malme-3M
MDA-N = tested on: MDA-N
HCT-116 = tested on: HCT-116
HCT-15 = tested on: HCT-15
SK-MEL-5 = tested on: SK-MEL-5
M14 = tested on: M14
PC-3 = tested on: PC-3
IGROV-1 = tested on: IGROV-1
MCF7 = tested on: MCF7
NCI/ADR-RES = tested on: NCI/ADR-RES
ACHN = tested on: ACHN
UACC-62 = tested on: UACC-62
HL-60 = tested on: HL-60
SNB-75 = tested on: SNB-75
BT-549 = tested on: BT-549
OVCAR-8 = tested on: OVCAR-8
OVCAR-4 = tested on: OVCAR-4
EKVX = tested on: EKVX
HOP-92 = tested on: HOP-92

CC(C)Oc1c(-c2ccc(F)cc2)c(O)c2c3c1oc(=O)n3C=CC2C (stereo unspecified)
GI50 (TK-10): 16.9 µM (inactive) | GI50 (SK-MEL-28): 15.7 µM (inactive) | GI50 (CAKI-1): 14.2 µM (inactive) | GI50 (MOLT-4): 6.07 µM (inactive) | GI50 (A549): 13 µM (inactive) | GI50 (SF-268): 17.3 µM (inactive) | GI50 (MDA-MB-231): 14.4 µM (inactive) | GI50 (UO-31): 12.2 µM (inactive) | GI50 (K562): 6.59 µM (inactive) | GI50 (SF-539): 13.4 µM (inactive) | GI50 (COLO 205): 16 µM (inactive) | GI50 (SF-295): 15.2 µM (inactive) | GI50 (SK-OV-3): 24 µM (inactive) | GI50 (OVCAR-3): 14.4 µM (inactive) | GI50 (MDA-MB-435): 17.9 µM (inactive) | GI50 (CCRF-CEM): 11 µM (inactive) | GI50 (NCI-H23): 11.8 µM (inactive) | GI50 (RPMI-8226): 6.27 µM (inactive) | GI50 (RXF 393): 14 µM (inactive) | GI50 (SW-620): 14.3 µM (inactive) | GI50 (NCI-H522): 12.1 µM (inactive) | GI50 (SNB-19): 15.8 µM (inactive) | GI50 (HCC 2998): 13.4 µM (inactive) | GI50 (786-0): 14.7 µM (inactive) | GI50 (UACC-257): 13.2 µM (inactive) | GI50 (HT-29): 16.6 µM (inactive) | GI50 (LOX IMVI): 14.5 µM (inactive) | GI50 (OVCAR-5): 24.7 µM (inactive) | GI50 (NCI-H460): 14.2 µM (inactive) | GI50 (KM12): 13.2 µM (inactive) | GI50 (DU-145): 13.1 µM (inactive) | GI50 (SN12C): 11.5 µM (inactive) | GI50 (A498): 15 µM (inactive) | GI50 (HOP-62): 14.8 µM (inactive) | GI50 (NCI-H226): 13.9 µM (inactive) | GI50 (Hs-578T): 20.2 µM (inactive) | GI50 (U-251): 15.5 µM (inactive) | GI50 (SK-MEL-2): 17.8 µM (inactive) | GI50 (Malme-3M): 22.3 µM (inactive) | GI50 (MDA-N): 12.4 µM (inactive) | GI50 (HCT-116): 12.9 µM (inactive) | GI50 (HCT-15): 14.9 µM | GI50 (SK-MEL-5): 10.8 µM (inactive) | GI50 (M14): 15.1 µM (inactive) | GI50 (PC-3): 7.05 µM (inactive) | GI50 (IGROV-1): 15.3 µM (inactive) | GI50 (MCF7): 11.3 µM (inactive) | GI50 (NCI/ADR-RES): 13.8 µM (inactive) | GI50 (ACHN): 14.5 µM (inactive) | GI50 (UACC-62): 14.6 µM (inactive) | GI50 (HL-60): 10.4 µM (inactive) | GI50 (SNB-75): 14.8 µM (inactive) | GI50 (BT-549): 14 µM (inactive) | GI50 (OVCAR-8): 15.8 µM (inactive) | GI50 (OVCAR-4): 10.7 µM (inactive) | GI50 (EKVX): 14.3 µM (inactive) | GI50 (HOP-92): 13.9 µM (inactive)

Cc1ccc(C(=O)N/N=C(\N=N\c2ccccc2C(=O)O)c2ccc(N(C)C)cc2)cc1
GI50 (TK-10): > 100 µM (inactive) | GI50 (SK-MEL-28): > 100 µM (inactive) | GI50 (CAKI-1): > 100 µM (inactive) | GI50 (MOLT-4): 71.4 µM (inactive) | GI50 (A549): 98.2 µM (inactive) | GI50 (SF-268): > 100 µM (inactive) | GI50 (MDA-MB-231): > 100 µM (inactive) | GI50 (UO-31): 80.4 µM (inactive) | GI50 (K562): 35.8 µM (inactive) | GI50 (SF-539): > 100 µM (inactive) | GI50 (COLO 205): 35.2 µM (inactive) | GI50 (SF-295): 41.6 µM (inactive) | GI50 (OVCAR-3): 22.2 µM (inactive) | GI50 (MDA-MB-435): 22.9 µM (inactive) | GI50 (CCRF-CEM): 43.5 µM (inactive) | GI50 (NCI-H23): > 100 µM (inactive) | GI50 (RPMI-8226): > 100 µM (inactive) | GI50 (SW-620): > 100 µM (inactive) | GI50 (NCI-H522): 46.3 µM (inactive) | GI50 (SNB-19): 55.3 µM (inactive) | GI50 (HCC 2998): 71.4 µM (inactive) | GI50 (786-0): > 100 µM (inactive) | GI50 (UACC-257): > 100 µM (inactive) | GI50 (HT-29): > 100 µM (inactive) | GI50 (LOX IMVI): > 100 µM (inactive) | GI50 (OVCAR-5): > 100 µM (inactive) | GI50 (NCI-H460): 72.6 µM (inactive) | GI50 (KM12): 42.9 µM (inactive) | GI50 (DU-145): > 10 µM (inactive) | GI50 (SN12C): > 100 µM (inactive) | GI50 (NCI-H226): > 100 µM (inactive) | GI50 (Hs-578T): > 100 µM (inactive) | GI50 (U-251): > 100 µM (inactive) | GI50 (SK-MEL-2): > 100 µM (inactive) | GI50 (MDA-N): 19 µM (inactive) | GI50 (HCT-116): > 100 µM (inactive) | GI50 (HCT-15): 64.7 µM | GI50 (SK-MEL-5): > 100 µM (inactive) | GI50 (M14): 64.6 µM (inactive) | GI50 (PC-3): > 100 µM (inactive) | GI50 (IGROV-1): > 100 µM (inactive) | GI50 (MCF7): > 100 µM (inactive) | GI50 (NCI/ADR-RES): 71.6 µM (inactive) | GI50 (HL-60): 53.5 µM (inactive) | GI50 (BT-549): > 100 µM (inactive) | GI50 (OVCAR-8): > 100 µM (inactive) | GI50 (OVCAR-4): 64.7 µM (inactive) | GI50 (EKVX): 75.2 µM (inactive) | GI50 (HOP-92): > 100 µM (inactive)
